Key:
Format in all cases: in vivo, Syrian hamsters
[1] = tested on: hamsters fed with high cholesterol diet; assay: Animal experiments on lowering blood lipids: serum lipid profile
Protocol: Male Syrian hamsters aged 6-7 weeks were tested for evaluating the effects of lowering blood lipid profile. Animals were divided into 6 groups, 8 hamsters in each group with a total of 48 hamsters. The experiment was conducted for 8 weeks, and the dosing method was oral gavage, and the animals of experimental groups were fed with the astaxanthin compound composition prepared according to the present invention. The dosage used was calculated according to the dosage for adult human. […] Based on this dosage, the 1×, 2× and 3× dosages were respectively defined for the following testing. The animals were fed with 1× (the converted dosage for hamster is 30.83 mg/kg), 2× (the converted dosage for hamster is 61.67 mg/kg) and 3× (the converted dosage for hamster is 92.50 mg/kg) dosages. At the same time, the clinically used anti-hyperlipidemic drug, Probucol, was used as comparison for evaluating the anti-hyperlipidemic effect. [table] Biostatistical analysis method: the results of the experiment were statistically tested based on one-way ANOVA by using SPSS 10.1 system. Then, the difference among the groups was tested by Duncan's Multiple Range Test. When the p value is smaller than 0.05 (P<0.05), it indicates statistically significant difference. The experimental animals were sacrificed to have blood drawn and the results of total cholesterol (TC) and triglyceride (TG) were shown in Table 2. […] Please continue to refer to Table 2 for the effects of astaxanthin compound composition on high-density lipoprotein cholesterol (HDL-C), low-density lipoprotein cholesterol (LDL-C) in hamsters fed with high cholesterol diet.

[2] = tested on: hamsters fed with high cholesterol diet; assay: Animal experiments on lowering blood lipids: total cholesterol and triglyceride in the feces; details: Positive control (P), 124 mg/kg oral gavage, 8 weeks
Protocol: Male Syrian hamsters aged 6-7 weeks were tested for evaluating the effects of lowering blood lipid profile. Animals were divided into 6 groups, 8 hamsters in each group with a total of 48 hamsters. The experiment was conducted for 8 weeks, and the dosing method was oral gavage, and the animals of experimental groups were fed with the astaxanthin compound composition prepared according to the present invention. The dosage used was calculated according to the dosage for adult human. […] Based on this dosage, the 1×, 2× and 3× dosages were respectively defined for the following testing. The animals were fed with 1× (the converted dosage for hamster is 30.83 mg/kg), 2× (the converted dosage for hamster is 61.67 mg/kg) and 3× (the converted dosage for hamster is 92.50 mg/kg) dosages. At the same time, the clinically used anti-hyperlipidemic drug, Probucol, was used as comparison for evaluating the anti-hyperlipidemic effect. [table] Biostatistical analysis method: the results of the experiment were statistically tested based on one-way ANOVA by using SPSS 10.1 system. Then, the difference among the groups was tested by Duncan's Multiple Range Test. When the p value is smaller than 0.05 (P<0.05), it indicates statistically significant difference. […]

[3] = tested on: hamsters fed with high cholesterol diet; assay: Animal experiments on lowering blood lipids: total cholesterol and triglyceride in the liver
Protocol: Male Syrian hamsters aged 6-7 weeks were tested for evaluating the effects of lowering blood lipid profile. Animals were divided into 6 groups, 8 hamsters in each group with a total of 48 hamsters. The experiment was conducted for 8 weeks, and the dosing method was oral gavage, and the animals of experimental groups were fed with the astaxanthin compound composition prepared according to the present invention. The dosage used was calculated according to the dosage for adult human. […] Based on this dosage, the 1×, 2× and 3× dosages were respectively defined for the following testing. The animals were fed with 1× (the converted dosage for hamster is 30.83 mg/kg), 2× (the converted dosage for hamster is 61.67 mg/kg) and 3× (the converted dosage for hamster is 92.50 mg/kg) dosages. At the same time, the clinically used anti-hyperlipidemic drug, Probucol, was used as comparison for evaluating the anti-hyperlipidemic effect. [table] Biostatistical analysis method: the results of the experiment were statistically tested based on one-way ANOVA by using SPSS 10.1 system. Then, the difference among the groups was tested by Duncan's Multiple Range Test. When the p value is smaller than 0.05 (P<0.05), it indicates statistically significant difference. When the concentration of total cholesterol and triglyceride in the liver is too high, the risk of developing fatty liver may increase. According to the present Experimental Example, the concentration changes in total cholesterol and triglyceride in the liver and feces of the tested animals are shown in Table 3.

[4] = Positive control (P), 124 mg/kg oral gavage, 8 weeks, high cholesterol diet

CC(C)(Sc1cc(C(C)(C)C)c(O)c(C(C)(C)C)c1)Sc1cc(C(C)(C)C)c(O)c(C(C)(C)C)c1 [Probucol]
HDL-C in serum [1, 4]: 83 ± 11 mg/dL
HDL-C/TC in serum [1, 4]: 0.707 ± 0.066
LDL-C in serum [1, 4]: 31.8 ± 3.9 mg/dL
LDL-C/HDL-C in serum [1, 4]: 0.392 ± 0.110
LDL-C/TC in serum [1, 4]: 0.203 ± 0.032
TC (total cholesterol) in serum [1, 4]: 157 ± 11 mg/dL
TG (triglyceride) in serum [1, 4]: 152 ± 14 mg/dL
total cholesterol in blood compared with vehicle control group ([1]; positive control group, 124 mg/kg, p<0.05): significantly lower
feces TC [2]: 6.7 ± 0.9 mg/g
feces TG [2]: 15.8 ± 2.8 mg/g
liver TC [3, 4]: 3.80 ± 0.26 mg/g
liver TG [3, 4]: 13.7 ± 1.5 mg/g
total cholesterol concentration in the liver compared with vehicle control group ([3]; positive control (P) group, 124 mg/kg, p<0.05): significantly lower
